Reference: patent US20240358692A1, “TREATMENT OF SCLERODERMA” (Aisa Pharma, Inc., priority 2023, published 2024)

System: participants with SSc-RP
Test: Average severity of weekly RP attacks (VAS 0-10)
Format: in vivo, human
Settings: for Average Severity (0-10) of weekly RP attacks, Median / Average Severity (0-10) of weekly RP attacks, Mean / Average severity of weekly RP attacks, Percent Change from Baseline, Mean / Average severity of weekly RP attacks, Change from Baseline, Mean / Average severity of weekly RP attacks, Percent Change from Baseline, Median / Average severity of weekly RP attacks, Change from Baseline, Median: all attacks
Text: The absolute change in average severity of weekly RP attacks (VAS 0-10 cm scale) from baseline to the end of each Dosing Period was and will be a secondary outcome variable. The sponsor-developed participant-informed diary will be used to record data. Average severity of weekly RP attacks is defined as the total severity scores of RP attacks divided by total number of RP attacks within the last 7 days of each dosing period. Total severity scores of RP attacks during the last 7 days of screening period divided by the total number of RP attacks will be used as baseline for the analysis of all periods. The variable will be calculated similar to frequency data as before.

[1] = Pooled Cilnidipine 10 mg and Cilnidipine 10 mg + Tadalafil 5 mg, Excluding Outliers, 1st Baseline RCS subgroup, ITT Part A, last 7 days of dosing period
[2] = Pooled Cilnidipine 10 mg and Cilnidipine 10 mg + Tadalafil 5 mg, Excluding Outliers, 2nd Baseline RCS subgroup, ITT Part A, last 7 days of dosing period
[3] = Pooled Cilnidipine 10 mg and Cilnidipine 10 mg + Tadalafil 5 mg, ITT Part A, last 7 days of dosing period
[4] = Pooled Cilnidipine 10 mg and Cilnidipine 10 mg + Tadalafil 5 mg, Excluding Outliers, by Baseline RCS: second subgroup of Table C-8, ITT Part A
[5] = Pooled Cilnidipine 10 mg and Cilnidipine 10 mg + Tadalafil 5 mg, by Baseline RCS: second subgroup of Table C-7, ITT Part A
[6] = Pooled Cilnidipine 20 mg and Cilnidipine 20 mg + Tadalafil 5 mg, 1st Baseline RCS subgroup, ITT Part A, last 7 days of dosing period
[7] = Pooled Cilnidipine 20 mg and Cilnidipine 20 mg + Tadalafil 5 mg, 2nd Baseline RCS subgroup, ITT Part A, last 7 days of dosing period
[8] = Pooled Cilnidipine 20 mg and Cilnidipine 20 mg + Tadalafil 5 mg, Excluding Outliers, 1st Baseline RCS subgroup, ITT Part A, last 7 days of dosing period
[9] = Pooled Cilnidipine 20 mg and Cilnidipine 20 mg + Tadalafil 5 mg, Excluding Outliers, 2nd Baseline RCS subgroup, ITT Part A, last 7 days of dosing period
[10] = Pooled Cilnidipine 20 mg and Cilnidipine 20 mg + Tadalafil 5 mg, ITT Part A, last 7 days of dosing period
[11] = Pooled Cilnidipine 20 mg and Cilnidipine 20 mg + Tadalafil 5 mg, Excluding Outliers, by Baseline RCS: first subgroup of Table C-8, ITT Part A
[12] = Pooled Cilnidipine 20 mg and Cilnidipine 20 mg + Tadalafil 5 mg, by Baseline RCS: first subgroup of Table C-7, ITT Part A
[13] = Pooled Cilnidipine, 1st Baseline RCS subgroup, ITT Part A, last 7 days of dosing period
[14] = Pooled Cilnidipine, Excluding Outliers, 1st Baseline RCS subgroup, ITT Part A, last 7 days of dosing period
[15] = Pooled Cilnidipine, ITT Part A, last 7 days of dosing period
[16] = Pooled Cilnidipine, Excluding Outliers, ITT Part A
[17] = Pooled Cilnidipine, Excluding Outliers, by Baseline RCS: first subgroup of Table C-8, ITT Part A
[18] = Pooled Cilnidipine, by Baseline RCS: first subgroup of Table C-7, ITT Part A
[19] = Pooled Cilnidipine, excluding outliers, ITT Part A
[20] = Pooled Cilnidipine, excluding outliers, severity 0-10, ITT Part A
[21] = Pooled Cilnidipine, severity 0-10, ITT Part A

## COCCOC(=O)C1=C(C)NC(C)=C(C(=O)OC/C=C/c2ccccc2)C1c1cccc([N+](=O)[O-])c1 (centres unmarked) [Cilnidipine]
[1]
  Average Severity of Weekly Symptomatic RP Attacks, Change from Baseline, Median: −1.22
  Average Severity of Weekly Symptomatic RP Attacks, Mean: 3.34
  Average Severity of Weekly Symptomatic RP Attacks, Median: 3.34
  Average Severity of Weekly Symptomatic RP Attacks, Percent Change from Baseline, Mean: −20.18%
  Average Severity of Weekly Symptomatic RP Attacks, Percent Change from Baseline, Median: −20.18%
[2]
  Average Severity of Weekly Symptomatic RP Attacks, Change from Baseline, Mean: −1.13
  Average Severity of Weekly Symptomatic RP Attacks, Change from Baseline, Median: −1.13
  Average Severity of Weekly Symptomatic RP Attacks, Mean: 5.23
  Average Severity of Weekly Symptomatic RP Attacks, Median: 5.23
  Average Severity of Weekly Symptomatic RP Attacks, Percent Change from Baseline, Mean: −17.81%
  Average Severity of Weekly Symptomatic RP Attacks, Percent Change from Baseline, Median: −17.81%
[3]
  Average Severity of Weekly RP Attacks (All Attacks), Change from Baseline, Mean: −1.34
  Average Severity of Weekly RP Attacks (All Attacks), Change from Baseline, Median: −1.32
  Average Severity of Weekly RP Attacks (All Attacks), Mean: 3.62
  Average Severity of Weekly RP Attacks (All Attacks), Median: 3.05
  Average Severity of Weekly RP Attacks (All Attacks), Percent Change from Baseline, Mean: −23.02%
  Average Severity of Weekly RP Attacks (All Attacks), Percent Change from Baseline, Median: −21.20%
Pooled Cilnidipine 10 mg and Cilnidipine 10 mg + Tadalafil 5 mg, Excluding Outliers, ITT Part A
  Average Severity (0-10) of weekly RP attacks, Median: 3.05
[4]
  Average Severity (0-10) of weekly RP attacks, Mean: 4.90
  Average Severity (0-10) of weekly RP attacks, Median: 4.90
  Average severity of weekly RP attacks, Percent Change from Baseline, Mean: −21.20%
Pooled Cilnidipine 10 mg and Cilnidipine 10 mg + Tadalafil 5 mg, by Baseline RCS: first subgroup of Table C-7, ITT Part A
  Average severity of weekly RP attacks, Change from Baseline, Mean: −1.35
[5]
  Average Severity (0-10) of weekly RP attacks, Mean: 4.90
  Average Severity (0-10) of weekly RP attacks, Median: 4.90
  Average severity of weekly RP attacks, Percent Change from Baseline, Mean: −21.20%
  Average severity of weekly RP attacks, Percent Change from Baseline, Median: −21.20%
[6]
  Average Severity of Weekly Symptomatic RP Attacks, Change from Baseline, Mean: −1.06
  Average Severity of Weekly Symptomatic RP Attacks, Change from Baseline, Median: −0.33
  Average Severity of Weekly Symptomatic RP Attacks, Mean: 2.85
  Average Severity of Weekly Symptomatic RP Attacks, Median: 2.40
  Average Severity of Weekly Symptomatic RP Attacks, Percent Change from Baseline, Mean: −24.28%
  Average Severity of Weekly Symptomatic RP Attacks, Percent Change from Baseline, Median: −12.02%
[7]
  Average Severity of Weekly Symptomatic RP Attacks, Change from Baseline, Mean: −1.79
  Average Severity of Weekly Symptomatic RP Attacks, Change from Baseline, Median: −1.79
  Average Severity of Weekly Symptomatic RP Attacks, Mean: 5.06
  Average Severity of Weekly Symptomatic RP Attacks, Median: 5.06
  Average Severity of Weekly Symptomatic RP Attacks, Percent Change from Baseline, Mean: −26.14%
  Average Severity of Weekly Symptomatic RP Attacks, Percent Change from Baseline, Median: −26.14%
[8]
  Average Severity of Weekly Symptomatic RP Attacks, Change from Baseline, Mean: −1.06
  Average Severity of Weekly Symptomatic RP Attacks, Change from Baseline, Median: −0.33
  Average Severity of Weekly Symptomatic RP Attacks, Mean: 2.85
  Average Severity of Weekly Symptomatic RP Attacks, Median: 2.40
  Average Severity of Weekly Symptomatic RP Attacks, Percent Change from Baseline, Mean: −24.28%
  Average Severity of Weekly Symptomatic RP Attacks, Percent Change from Baseline, Median: −12.02%
[9]
  Average Severity of Weekly Symptomatic RP Attacks, Change from Baseline, Mean: −1.79
  Average Severity of Weekly Symptomatic RP Attacks, Change from Baseline, Median: −1.79
  Average Severity of Weekly Symptomatic RP Attacks, Mean: 5.06
  Average Severity of Weekly Symptomatic RP Attacks, Median: 5.06
  Average Severity of Weekly Symptomatic RP Attacks, Percent Change from Baseline, Mean: −26.14%
  Average Severity of Weekly Symptomatic RP Attacks, Percent Change from Baseline, Median: −26.14%
[10]
  Average Severity of Weekly RP Attacks (All Attacks), Change from Baseline, Mean: −1.02
  Average Severity of Weekly RP Attacks (All Attacks), Change from Baseline, Median: −0.96
  Average Severity of Weekly RP Attacks (All Attacks), Mean: 3.35
  Average Severity of Weekly RP Attacks (All Attacks), Median: 3.06
  Average Severity of Weekly RP Attacks (All Attacks), Percent Change from Baseline, Mean: −21.83%
  Average Severity of Weekly RP Attacks (All Attacks), Percent Change from Baseline, Median: −16.40%
Pooled Cilnidipine 20 mg and Cilnidipine 20 mg + Tadalafil 5 mg, Excluding Outliers, ITT Part A
  Average severity of weekly RP attacks, Change from Baseline, Median: −0.96
[11]
  Average Severity (0-10) of weekly RP attacks, Median: 2.40
  Average severity of weekly RP attacks, Change from Baseline, Mean: −0.84
  Average severity of weekly RP attacks, Change from Baseline, Median: −0.39
[12]
  Average Severity (0-10) of weekly RP attacks, Median: 2.40
  Average severity of weekly RP attacks, Change from Baseline, Mean: −0.84
  Average severity of weekly RP attacks, Change from Baseline, Median: −0.39
Pooled Cilnidipine (n = 7)
  Severity (change): −16%
[13]
  Average Severity of Weekly Symptomatic RP Attacks, Change from Baseline, Mean: −0.87
  Average Severity of Weekly Symptomatic RP Attacks, Change from Baseline, Median: −0.33
  Average Severity of Weekly Symptomatic RP Attacks, Mean: 2.79
  Average Severity of Weekly Symptomatic RP Attacks, Median: 2.40
  Average Severity of Weekly Symptomatic RP Attacks, Percent Change from Baseline, Mean: −19.22%
  Average Severity of Weekly Symptomatic RP Attacks, Percent Change from Baseline, Median: −12.02%
[14]
  Average Severity of Weekly Symptomatic RP Attacks, Change from Baseline, Mean: −0.87
  Average Severity of Weekly Symptomatic RP Attacks, Change from Baseline, Median: −0.33
  Average Severity of Weekly Symptomatic RP Attacks, Mean: 2.79
  Average Severity of Weekly Symptomatic RP Attacks, Median: 2.40
  Average Severity of Weekly Symptomatic RP Attacks, Percent Change from Baseline, Mean: −19.22%
  Average Severity of Weekly Symptomatic RP Attacks, Percent Change from Baseline, Median: −12.02%
Pooled Cilnidipine, ITT Part A
  Average Severity of Weekly Symptomatic RP Attacks, Percent Change from Baseline, Mean: −19.22%
  Average Severity of Weekly Symptomatic RP Attacks, Percent Change from Baseline, Median: −12.02%
[15]
  Average Severity of Weekly RP Attacks (All Attacks), Change from Baseline, Mean: −0.71
  Average Severity of Weekly RP Attacks (All Attacks), Change from Baseline, Median: −0.20
  Average Severity of Weekly RP Attacks (All Attacks), Mean: 2.55
  Average Severity of Weekly RP Attacks (All Attacks), Median: 2.40
  Average Severity of Weekly RP Attacks (All Attacks), Percent Change from Baseline, Mean: −17.99%
  Average Severity of Weekly RP Attacks (All Attacks), Percent Change from Baseline, Median: −7.69%
[16]
  Average Severity (0-10) of weekly RP attacks, Median: 2.40
  Average severity of weekly RP attacks, Change from Baseline, Mean: −0.71
  Average severity of weekly RP attacks, Change from Baseline, Median: −0.20
[17]
  Average Severity (0-10) of weekly RP attacks, Mean: 2.55
  Average Severity (0-10) of weekly RP attacks, Median: 2.40
  Average severity of weekly RP attacks, Change from Baseline, Mean: −0.71
  Average severity of weekly RP attacks, Change from Baseline, Median: −0.20
  Average severity of weekly RP attacks, Percent Change from Baseline, Mean: −17.99%
  Average severity of weekly RP attacks, Percent Change from Baseline, Median: −7.69%
[18]
  Average Severity (0-10) of weekly RP attacks, Mean: 2.55
  Average Severity (0-10) of weekly RP attacks, Median: 2.40
  Average severity of weekly RP attacks, Change from Baseline, Mean: −0.71
  Average severity of weekly RP attacks, Change from Baseline, Median: −0.20
  Average severity of weekly RP attacks, Percent Change from Baseline, Mean: −17.99%
  Average severity of weekly RP attacks, Percent Change from Baseline, Median: −7.69%
[19]
  Average Severity of Weekly Symptomatic RP Attacks, Percent Change from Baseline, Mean: −19.22%
  Average Severity of Weekly Symptomatic RP Attacks, Percent Change from Baseline, Median: −12.02%
[20]
  Average Severity of Weekly Symptomatic RP Attacks, Change from Baseline, Mean: −0.87
  Average Severity of Weekly Symptomatic RP Attacks, Change from Baseline, Median: −0.33
  Average Severity of Weekly Symptomatic RP Attacks, Mean: 2.79
  Average Severity of Weekly Symptomatic RP Attacks, Median: 2.40
[21]
  Average Severity of Weekly Symptomatic RP Attacks, Change from Baseline, Mean: −0.87
  Average Severity of Weekly Symptomatic RP Attacks, Change from Baseline, Median: −0.33
  Average Severity of Weekly Symptomatic RP Attacks, Mean: 2.79
  Average Severity of Weekly Symptomatic RP Attacks, Median: 2.40
Cilnidipine monotherapy 10 mg vs 20 mg (n=3)
  severity of attacks, dose response: 20 mg reducing severity more than 10 mg
